The values that follow come from PubChem BioAssay AID2651 (Vanderbilt High Throughput Screening Facility, 2010).

Structures are written as SMILES. Active and inactive are the calls of the source.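 The calls were made as follows: active = mean EC50 from three replicate curves at or below a set limit; inactive = mean EC50 above a set limit.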

The target of the assay is Muscarinic acetylcholine receptor M1 (Rattus norvegicus) (UniProt P08482). Kind of assay: structure-activity potentiation of ACh at M1 – cell-based, calcium mobilization, CHO-K1, SAR follow-up (AID 2651). The following applies: CHO-K1 rat M1, calcium Fluo-4, ACh EC20 potentiation.
Sequence of Muscarinic acetylcholine receptor M1 (Rattus norvegicus) (P08482 whole entry, looked up): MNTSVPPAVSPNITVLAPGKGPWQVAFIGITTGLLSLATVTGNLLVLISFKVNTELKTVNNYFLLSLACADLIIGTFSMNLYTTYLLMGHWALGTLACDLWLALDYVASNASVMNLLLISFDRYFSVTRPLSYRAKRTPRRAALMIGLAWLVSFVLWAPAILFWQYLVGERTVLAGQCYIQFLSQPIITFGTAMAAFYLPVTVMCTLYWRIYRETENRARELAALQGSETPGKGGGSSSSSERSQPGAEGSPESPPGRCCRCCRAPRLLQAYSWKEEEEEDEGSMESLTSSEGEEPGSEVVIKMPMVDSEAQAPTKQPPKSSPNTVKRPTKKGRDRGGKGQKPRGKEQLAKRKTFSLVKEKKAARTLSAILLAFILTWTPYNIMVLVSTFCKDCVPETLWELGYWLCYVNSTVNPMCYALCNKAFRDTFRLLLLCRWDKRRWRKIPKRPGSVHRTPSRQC

Broadly, the EC50 is the concentration needed to bring the measured effect to its halfway point. As to `Cc1cc(NC(=O)CS(=O)(=O)c2cn(Cc3cccc(-c4ccccc4)c3)c3ccccc23)no1`, the EC50 is > 30 µM (inactive). In the case of `Cc1cc(NC(=O)CS(=O)(=O)c2cn(Cc3ccc(Cl)c(Cl)c3)c3ccccc23)no1`, the EC50 is > 30 µM (inactive). As for `Cc1cc(NC(=O)CS(=O)(=O)c2cn(Cc3ccc(F)c(-c4ccn[nH]4)c3)c3ccccc23)no1`, the EC50 is > 30 µM (inactive). In the case of `Cc1cc(NC(=O)CS(=O)(=O)c2cn(Cc3cccc(C(F)(F)F)c3)c3ccccc23)no1`, the EC50 is > 30 µM (inactive). Consider `Cc1cc(NC(=O)CS(=O)(=O)c2cn(Cc3ccc(F)c(Cl)c3)c3ccccc23)no1`, for which the EC50 was > 30 µM (inactive).
